Assay results published in ChEMBL document CHEMBL5226289, “Discovery of natural anti-inflammatory alkaloids: Potential leads for the drug discovery for the treatment of inflammation” (Eur J Med Chem, 2021).
pIC50: −log10 of the molar value.

Legend:
RAW264.7 [1] = test: Inhibition of NO production in LPS-stimulated mouse RAW264.7 cells preincubated with compound for 24 hrs followed by LPS stimulation and measured after 2 hrs by Griess reagent-based assay; format: functional, cell-based
RAW264.7 [2] = test: Antiinflammatory activity in mouse RAW264.7 cells assessed as inhibition of LPS-stimulated iNOS activity preincubated with compound for 24 hrs followed by LPS stimulation for 2 hrs and measured 2 hrs after NADPH addition by fluorescence based assay; format: functional, cell-based
[3] = Inhibition of LPS-induced NO production in mouse BV-2 cells […]; format: functional, cell-based
[4] = Inhibition of NO production in LPS-induced mouse N9 cells incubated for 48 hrs by griess reagent based assay; format: functional, cell-based; conditions: N9, 48 h
RAW264.7 [5] = test: Inhibition of NO production in LPS-stimulated mouse RAW264.7 cells preincubated with compound for 1 hrs followed by LPS stimulation and measured after 24 hrs by Griess reagent-based assay; format: functional, cell-based
Rattus norvegicus = test: Antiinflammatory activity in Wistar rat assessed as inhibition of carrageenan-induced hind paw edema at 50 mg/kg, po pre-treated for 1 hrs followed by carrageenan administration and measured after 3 hrs by plethysmometer relative to control; format: functional; conditions: time 4 hrs
RAW264.7 [6] = test: Inhibition of NO production in LPS-stimulated mouse RAW264.7 cells preincubated with compound for 30 mins followed by LPS stimulation and measured after 24 hrs by Griess reagent-based assay; format: functional, cell-based
Mus musculus [7] = test: Antiinflammatory activity in Swiss Webster albino mouse assessed as inhibition of carrageenan-induced paw edema at 75 mg/kg, ip preadministered for 1 hrs followed by carrageenan induction and measured after 3 hrs by plethysmometer relative to control; format: functional; conditions: time 4 hrs
Mus musculus [8] = test: Analgesic activity in Swiss Webster albino mouse assessed as inhibition of acetic acid-induced writhing at 125 mg/kg, po pre-treated for 30 mins followed by acetic acid induction and measured for 15 mins relative to control; format: functional; conditions: 0.75 h, time 45 min
Mus musculus [9] = test: Antiinflammatory activity in mouse assessed as inhibition of xylene-induced ear edema at 5 mg/kg, IG pre-treated for 30 mins followed by xylene administration and measured after 1 hrs relative to control; format: functional; conditions: po, time 1.5 hrs
Mus musculus [10] = test: Antiinflammatory activity in carrageenan-induced peritoneal Swiss albino mouse model assessed as decrease in number of leukocyte cells at 100 umol/kg, po pre-treated for 30 mins followed by carrageenan induction and measured after 4 hrs relative to control; format: functional; design: scale not given: the % may be the effect or the level left; conditions: dose 100 µmol/kg, time 4.5 hrs
[11] = Antiinflammatory activity in rat polymorphonuclear leucocyte cells assessed as inhibition of PAF-induced beta-glucuronidase release at 10 uM preincubated for 20 mins followed by PAF addition relative to control; format: functional
[12] = target: Prostaglandin G/H synthase 1 (Homo sapiens, UniProt P23219); test: Inhibition of COX-1 (unknown origin) by colorimetric analysis
[13] = target: T1, Prostaglandin G/H synthase 2 (Homo sapiens, UniProt P35354); test: Inhibition of COX-2 (unknown origin) by colorimetric analysis
T1 sequence (P35354 whole entry): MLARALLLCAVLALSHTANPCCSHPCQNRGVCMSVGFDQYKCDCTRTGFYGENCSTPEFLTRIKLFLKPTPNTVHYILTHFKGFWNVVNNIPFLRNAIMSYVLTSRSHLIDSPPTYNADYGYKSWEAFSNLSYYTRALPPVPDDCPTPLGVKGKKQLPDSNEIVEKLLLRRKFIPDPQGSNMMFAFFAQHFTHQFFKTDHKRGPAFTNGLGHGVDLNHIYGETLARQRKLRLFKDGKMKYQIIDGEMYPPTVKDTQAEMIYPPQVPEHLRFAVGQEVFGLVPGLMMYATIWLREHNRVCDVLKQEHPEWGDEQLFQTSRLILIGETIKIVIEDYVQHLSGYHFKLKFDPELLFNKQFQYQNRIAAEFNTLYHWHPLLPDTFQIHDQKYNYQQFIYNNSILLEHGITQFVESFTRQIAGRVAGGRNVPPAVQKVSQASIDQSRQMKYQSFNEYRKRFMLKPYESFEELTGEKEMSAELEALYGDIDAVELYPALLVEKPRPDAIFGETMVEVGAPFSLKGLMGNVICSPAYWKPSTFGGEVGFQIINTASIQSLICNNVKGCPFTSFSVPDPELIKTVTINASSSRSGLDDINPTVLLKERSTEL

RAW264.7 [14] = test: Antiinflammatory activity against mouse RAW264.7 cells assessed as inhibition of cell growth; format: functional, cell-based
[15] = target: T2, Acid-sensing ion channel 1 (Rattus norvegicus) (UniProt P55926); test: Inhibition of rat ASIC1a ion channel expressed in Xenopus laevis oocytes in pH 6.9 buffer at -50 mV holding potential by voltage clamp electrophysiology recording; format: cell-based
T2 sequence (whole entry): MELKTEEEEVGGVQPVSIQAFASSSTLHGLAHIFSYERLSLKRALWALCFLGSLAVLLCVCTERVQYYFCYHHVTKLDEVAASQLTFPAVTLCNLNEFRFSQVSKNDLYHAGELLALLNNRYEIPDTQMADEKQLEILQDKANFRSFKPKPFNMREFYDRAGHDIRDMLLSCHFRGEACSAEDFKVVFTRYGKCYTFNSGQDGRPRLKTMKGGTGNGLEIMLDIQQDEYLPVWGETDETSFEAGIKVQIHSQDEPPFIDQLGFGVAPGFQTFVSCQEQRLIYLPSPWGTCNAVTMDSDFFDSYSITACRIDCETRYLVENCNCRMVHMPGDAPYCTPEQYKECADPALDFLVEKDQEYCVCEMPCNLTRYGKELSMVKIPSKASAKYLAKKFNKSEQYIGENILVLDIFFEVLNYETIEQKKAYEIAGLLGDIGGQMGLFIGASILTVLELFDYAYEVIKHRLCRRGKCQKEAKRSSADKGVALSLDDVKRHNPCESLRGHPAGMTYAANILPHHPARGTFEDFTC

[16] = target: T2, Acid-sensing ion channel 1 (Rattus norvegicus); test: Inhibition of rat ASIC1a ion channel expressed in Xenopus laevis oocytes in pH 6.7 buffer at -50 mV holding potential by voltage clamp electrophysiology recording; format: cell-based
[17] = target: T2, Acid-sensing ion channel 1 (Rattus norvegicus); test: Inhibition of rat ASIC1a ion channel expressed in Xenopus laevis oocytes in pH 6.5 buffer at -50 mV holding potential by voltage clamp electrophysiology recording; format: cell-based
RAW264.7 [18] = test: Inhibition of NO production in LPS-stimulated mouse RAW264.7 cells at 100 uM incubated for 18 hrs by Griess reagent-based assay; format: functional
[19] = target: Nuclear factor NF-kappa-B complex (Homo sapiens) (UniProt Q00653+P19838+Q04206); test: Inhibition of TNF-alpha induced NFkappaB activation in HEK293 cells at 100 uM pretreated for 15 mins followed by stimulation with human recombinant TNFalpha and measured after 6 hrs by luminescence based assay relative to control; format: cell-based; conditions: time 375.0 min
Chain of Nuclear factor NF-kappa-B complex (Homo sapiens) (P19838 whole entry, looked up): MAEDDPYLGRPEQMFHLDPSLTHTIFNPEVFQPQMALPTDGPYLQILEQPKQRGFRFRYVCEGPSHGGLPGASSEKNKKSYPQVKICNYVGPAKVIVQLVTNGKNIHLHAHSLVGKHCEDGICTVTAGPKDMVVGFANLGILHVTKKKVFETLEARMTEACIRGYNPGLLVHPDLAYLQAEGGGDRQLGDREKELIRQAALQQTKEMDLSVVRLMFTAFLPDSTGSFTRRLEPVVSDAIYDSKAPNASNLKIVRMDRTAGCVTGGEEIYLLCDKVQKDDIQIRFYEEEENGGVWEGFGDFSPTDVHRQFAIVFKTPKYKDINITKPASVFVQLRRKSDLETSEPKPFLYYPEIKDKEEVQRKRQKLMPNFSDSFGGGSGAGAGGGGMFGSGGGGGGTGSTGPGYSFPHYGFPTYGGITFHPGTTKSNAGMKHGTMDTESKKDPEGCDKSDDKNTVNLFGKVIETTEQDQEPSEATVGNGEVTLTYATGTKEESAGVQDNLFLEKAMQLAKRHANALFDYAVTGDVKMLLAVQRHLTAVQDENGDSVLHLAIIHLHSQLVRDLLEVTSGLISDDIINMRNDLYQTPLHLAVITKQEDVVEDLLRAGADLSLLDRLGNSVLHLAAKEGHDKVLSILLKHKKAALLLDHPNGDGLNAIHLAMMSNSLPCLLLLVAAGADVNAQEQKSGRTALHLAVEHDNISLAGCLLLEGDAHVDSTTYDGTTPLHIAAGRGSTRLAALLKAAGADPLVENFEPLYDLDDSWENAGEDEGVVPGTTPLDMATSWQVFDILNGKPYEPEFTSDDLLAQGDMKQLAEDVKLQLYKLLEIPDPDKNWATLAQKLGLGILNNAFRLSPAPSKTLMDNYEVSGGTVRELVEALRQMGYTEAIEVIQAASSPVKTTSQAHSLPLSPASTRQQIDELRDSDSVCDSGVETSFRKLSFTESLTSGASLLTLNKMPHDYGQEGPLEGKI
Chain of Nuclear factor NF-kappa-B complex (Homo sapiens) (Q00653 whole entry, looked up): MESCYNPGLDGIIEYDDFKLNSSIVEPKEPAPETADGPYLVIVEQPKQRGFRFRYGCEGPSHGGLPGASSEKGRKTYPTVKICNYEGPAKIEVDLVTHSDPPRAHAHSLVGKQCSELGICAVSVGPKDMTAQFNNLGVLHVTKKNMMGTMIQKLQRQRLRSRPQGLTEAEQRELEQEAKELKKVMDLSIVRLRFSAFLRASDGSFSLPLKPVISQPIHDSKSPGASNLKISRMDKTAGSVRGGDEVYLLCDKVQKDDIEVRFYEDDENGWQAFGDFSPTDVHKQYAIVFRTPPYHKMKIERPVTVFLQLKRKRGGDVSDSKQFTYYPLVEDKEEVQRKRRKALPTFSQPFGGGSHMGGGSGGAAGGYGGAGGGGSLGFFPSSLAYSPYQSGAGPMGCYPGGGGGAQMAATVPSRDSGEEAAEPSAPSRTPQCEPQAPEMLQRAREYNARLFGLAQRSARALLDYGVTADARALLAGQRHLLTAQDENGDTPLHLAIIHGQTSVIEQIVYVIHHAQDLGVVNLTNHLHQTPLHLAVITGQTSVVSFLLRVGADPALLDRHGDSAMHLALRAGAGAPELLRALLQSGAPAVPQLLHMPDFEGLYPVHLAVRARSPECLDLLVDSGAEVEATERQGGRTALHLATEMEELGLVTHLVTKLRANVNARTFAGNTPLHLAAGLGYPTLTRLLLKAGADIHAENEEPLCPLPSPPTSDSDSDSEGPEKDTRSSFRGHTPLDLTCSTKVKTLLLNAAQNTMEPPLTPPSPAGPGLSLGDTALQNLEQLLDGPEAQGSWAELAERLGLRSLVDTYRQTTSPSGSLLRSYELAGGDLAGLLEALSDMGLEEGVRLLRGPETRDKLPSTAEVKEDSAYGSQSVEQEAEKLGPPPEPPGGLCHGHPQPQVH
Chain of Nuclear factor NF-kappa-B complex (Homo sapiens) (Q04206 whole entry, looked up): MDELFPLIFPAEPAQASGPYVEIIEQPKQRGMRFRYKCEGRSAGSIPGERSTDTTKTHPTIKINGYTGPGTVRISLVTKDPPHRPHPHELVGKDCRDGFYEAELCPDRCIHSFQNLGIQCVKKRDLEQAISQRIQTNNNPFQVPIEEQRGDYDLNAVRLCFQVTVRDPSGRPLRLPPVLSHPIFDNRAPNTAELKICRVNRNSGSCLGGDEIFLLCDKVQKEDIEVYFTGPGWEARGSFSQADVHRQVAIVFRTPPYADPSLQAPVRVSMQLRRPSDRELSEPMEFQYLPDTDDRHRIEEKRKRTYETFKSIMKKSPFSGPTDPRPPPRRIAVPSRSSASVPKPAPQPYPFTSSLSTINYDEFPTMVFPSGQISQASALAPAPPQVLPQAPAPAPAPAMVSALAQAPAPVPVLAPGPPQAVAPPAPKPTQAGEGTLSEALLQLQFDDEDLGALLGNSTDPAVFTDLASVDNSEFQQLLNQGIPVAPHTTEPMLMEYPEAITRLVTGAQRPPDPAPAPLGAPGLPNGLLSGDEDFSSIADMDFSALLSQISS

Chain of Prostaglandin G/H synthase 1 (P23219 whole entry): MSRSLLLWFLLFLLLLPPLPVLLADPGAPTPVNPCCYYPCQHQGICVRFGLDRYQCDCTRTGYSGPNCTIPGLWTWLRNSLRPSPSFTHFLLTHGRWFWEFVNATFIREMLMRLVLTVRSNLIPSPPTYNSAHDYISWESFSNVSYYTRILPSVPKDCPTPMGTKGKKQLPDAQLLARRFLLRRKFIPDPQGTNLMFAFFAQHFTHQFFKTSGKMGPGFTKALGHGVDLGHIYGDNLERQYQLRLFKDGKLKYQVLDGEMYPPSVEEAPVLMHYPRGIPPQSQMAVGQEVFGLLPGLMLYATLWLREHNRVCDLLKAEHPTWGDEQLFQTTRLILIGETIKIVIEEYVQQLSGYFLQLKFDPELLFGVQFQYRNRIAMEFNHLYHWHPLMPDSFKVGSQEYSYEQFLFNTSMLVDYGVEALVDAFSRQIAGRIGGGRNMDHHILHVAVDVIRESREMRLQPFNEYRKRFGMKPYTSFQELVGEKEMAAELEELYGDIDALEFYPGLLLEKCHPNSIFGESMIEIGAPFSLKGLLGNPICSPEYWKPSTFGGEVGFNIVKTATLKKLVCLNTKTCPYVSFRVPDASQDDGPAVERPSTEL

C=CC(C)(C)c1[nH]c2cc3c(cc2c1/C=C1\NC(=O)[C@@H]2CCCN2C1=O)C=CC(C)(C)O3
pIC50 (RAW264.7 [1]): 4.95
pIC50 (RAW264.7 [2]): 5.27

CC(C)=CCOc1ccc(CCNC(=O)c2ccccc2)cc1
pIC50 [3]: 5.31

C=C[C@@H]1[C@@H](O[C@@H]2O[C@H](CO)[C@@H](O)[C@H](O)[C@H]2O)OC=C(C(=O)OC)[C@@H]1C[C@@H]1NCCc2c1[nH]c1ccccc21
pIC50 [4]: 5.08

O=C1NCCc2c1[nH]c1ccc(O)cc21
pIC50 (RAW264.7 [5]): 4.50

COc1ccc2c(OC)c3ccoc3nc2c1 [EVOLITRINE]
inhibition in vivo at 50 mg/kg (Rattus norvegicus): 62%

O=C(C1C=CC(c2ccc3c(c2)OCO3)C(/C=C/c2ccc3c(c2)OCO3)C1C(=O)N1CCCCC1)N1CCCCC1 (stereo not given)
pIC50 (RAW264.7 [6]): 5.17

O=C1Oc2c(c3c(O)cc(O)cc3n2-c2ccc(O)cc2)C(=O)Oc2c1c1c(O)cc(O)cc1n2-c1ccc(O)cc1
inhibition in vivo at 75 mg/kg (Mus musculus [7]): 57.1%
inhibition in vivo at 125 mg/kg (Mus musculus [8]): 49.4%

COC(=O)C1=C2Nc3c(O)cccc3[C@@]23CCN2C[C@@H]([C@H](C)O)[C@@H]1C[C@H]23 [SCHOLARICINE]
inhibition in vivo at 5 mg/kg (Mus musculus [9]): 42%

COc1ccc2c(c1)c(CC(=O)O)c(C)n2C(=O)c1ccc(Cl)cc1 [INDOMETHACIN]
Activity (Mus musculus [10]): 72.1%

COC1O[C@@H]([C@@H]2c3cc4c(cc3CCN2C)OCO4)c2ccc3c(c21)OCO3 (stereo not given in full)
inhibition at 10 µM [11]: 35.6%

CC(C)CC(=O)NC[C@H]1CC[C@H](NC(=O)c2nc3ccccc3cc2O)[C@H](O)O1
pIC50 [12]: 5.31
pIC50 [13]: 5.85

Cc1ccc(-c2cc(C(F)(F)F)nn2-c2ccc(S(N)(=O)=O)cc2)cc1 [CELECOXIB]
pIC50 (RAW264.7 [14]): 4.46

COc1cc2c(cc1O)C(Cc1ccc(O)c(Oc3ccc(C[C@@H]4NCCc5cc(OC)c(O)cc54)cc3)c1)NCC2 (stereo not given in full)
inhibition [15]: 98.1%
inhibition [16]: 93.7%
inhibition [17]: 69.3%

COc1cc2c(cc1O)-c1cc3ccc(OC)c(OC)c3c[n+]1CC2 [COLUMBAMINE]
inhibition at 100 µM (RAW264.7 [18]): 88.1%
inhibition [19]: 63.2%
